Series [1] is described as follows: Dissociation constant of the Compound. The format is physicochemical.
In series [2] the target is Protein farnesyltransferase (Homo sapiens, UniProt P49354+P49356). Put plainly: Inhibition of Farnesyl protein transferase. In kind it is protein-complex assay.

Drawing on ChEMBL document CHEMBL1132239, “Tricyclic farnesyl protein transferase inhibitors: crystallographic and calorimetric studies of structure-activity relationships” (J Med Chem, 1999), this text covers Kd and IC50 for five molecules.

Each structure is given as a SMILES string.

`O=C(Cc1cc[n+]([O-])cc1)N1CCN([C@H]2c3ccc(Cl)cc3CCc3cc(Br)cnc32)CC1` returned a dissociation constant (Kd) in series [1] of 21 nM. Turning to `O=C(Cc1cc[n+]([O-])cc1)N1CCC(=C2c3ccc(Cl)cc3CCc3cc(Br)cnc32)CC1`, the IC50 in series [2] came out at 52 nM. In series [1], this molecule showed a Kd of 17.5 nM.

Take `O=C(Cc1cc[n+]([O-])cc1)N1CCN([C@@H]2c3ccc(Cl)cc3CCc3cc(Br)cnc32)CC1`: in series [1], the Kd was found to be 32 nM. With `O=C(Cc1cc[n+]([O-])cc1)N1CCC(=C2c3ccc(Cl)cc3CCc3cccnc32)CC1`, in series [1], the Kd turned out to be 240 nM. As to `O=C(Cc1cc[n+]([O-])cc1)N1CCC(=C2c3ncc(Br)cc3CCc3cc(Cl)cc(Br)c32)CC1`, the IC50 in series [2] stood at 3.9 nM. Also, the Kd in series [1] amounted to 5.1 nM.
